According to patent publication US20070117864A1, “Composition for preventing and treating hepatoma” (Tokyo University of Agr. & Tech. TLO Co., Ltd., priority 2003, published 2007):

Assays:
Type in all cases: cell-based, rat
AH109A cells [1] = test: in vitro invasion assay of AH109A cells beneath mesothelial cell (M-cell) monolayer
Experimental: The tumor invasion activity was measured using a partially modified version (Miura Y., Shiomi H., Sakai F., and Yagasaki K. 1997 Assay systems for screening food components that have anti-proliferative and anti-invasive activity to rat ascites hepatoma cells: In vitro and ex vivo effects of green tea extract. Cytotechnology 23: 127-132) of the in vitro invasion assay method of Akedo et al (Akedo H, Shinkai K, Mukai M, Mori Y, Tateishi R, Tanaka K, Yamamoto R, Morishita T. Interaction of rat ascites hepatoma cells with cultured mesothelial cell layers: a model for tumor invasion. Cancer Res. 1986 May; 46(5):2416-22).
Mesothelial cells (M-cells) directly prepared from rat mesenteries to culture were cultured for 7 to 10 days until a confluent monolayer was formed, and subsequently, the medium was changed to 3 ml of the respective experimental media. AH109A cells were overlayed onto the mesothelial cells at the density of 2.4×10^4 cells, and were gently agitated, and were cultured in a CO2 incubator. […] The numbers of cells and numbers of colonies of the AH109A cells that had infiltrated beneath the mesothelial cell monolayer were counted in 10 places of 2-mm square divisions selected at random for 1 dish, and the mean values of the numbers obtained by calculating these counts per square centimeter were taken as an index of the tumor invasion activity. […]

AH109A cells [2] = test: apoptosis of AH109A cells by flow cytometry, Annexin V/PI double staining; conditions: for proportion of the fourth quadrant (early stage of apoptosis) / proportion of the second quadrant (secondary necrosis) / proportion of the third quadrant (live cells): 3 hours
Experimental: The analysis was performed using an ANNEXIN V FITC kit (IMMUNOTECH, Marseille, France). AH109A cells were inoculated at the density of 1×10^6 cells with 3 ml of the experimental medium in a dish with 6 cm in diameter (NUNC), and the cells were cultured for 0, 3 and 6 hours in a CO2 incubator at 37° C. The AH109A cells cultured under the respective treatment conditions were recovered, centrifuged for 5 minutes at 4° C. at 1000 rpm (90×g), and washed once with PBS (−). Subsequently, the cells was suspended in 490 μl of a binding buffer, and 5 μl of a PI solution and 5 μl of ANNEXIN V FITC, and these substances were gently mixed. The cells were stained by allowing the preparation to stand quietly for 10 minutes on ice with the light blocked. The apoptosis of the cells was analyzed using a flow cytometer (EPICS ELITE ESP; Beckman-Coulter, Hialeah, Fla., USA).

M-cells = test: proliferative activity of M-cells by [3H]thymidine incorporation; conditions: in vitro
Experimental: Male Donryu rats (4 to 10 weeks of age) were anesthetized by intraperitoneal injection of Nembutal at the dose of 5 mg/0.1 ml/100 g of body weight, and blood was collected by cutting the carotid artery. Subsequently, following disinfection using a hibiten solution, the abdomens of the animals were opened in a clean bench, and the mesenteric membranes were removed one by one and washed with PBS (−), and were then recovered in another 15 ml of PBS (−). The same amount of 0.5% trypsin in PBS (−) was added, and the preparation was agitated for 20 minutes at 37° C. Subsequently, 5 ml of a 10% CS/MEM was added, to stop the trypsin reaction. Then, the preparation was subjected to pipetting by means of a Komagome Pipette, and filtrated using a metal mesh. The filtrate was centrifuged for 10 minutes at 1500 rpm (440×g), 4° C., and was washed with PBS (−). The collected cells were inoculated into a 6 cm dish with an attached grid (2 mm square) at the density of 1.5 to 2.0×10^5 cells. The medium of 10% CS/MEM was used, and the medium was changed on the day following collection and every other day thereafter. […] Subsequently, the proliferation activity was measured as above-mentioned in (3).

O=C1OCC(Cc2cccc(O)c2)C1Cc1cccc(O)c1 (stereo not drawn) [Enterolactone, enterolactone]
ENL concentration at which cell toxicity was seen in the M-cells of the invasion assay system (AH109A cells [1]; M-cells in tumor invasion assay): ≥ 25 µM
effect on tumor invasion of AH109A cells (AH109A cells [1]; in vitro, 24 hours on M-cell monolayer): dose-dependent inhibitory effect
proportion of the fourth quadrant (early stage of apoptosis) (AH109A cells [2]; 6.25 μM ENL): 8.4%
proportion of the second quadrant (secondary necrosis) (AH109A cells [2]; 6.25 μM ENL): 2.8%
proportion of the third quadrant (live cells) (AH109A cells [2]; 6.25 μM ENL): 88.1%
proportion of the fourth quadrant (early stage of apoptosis) (AH109A cells [2]; 12.5 μM ENL): 11.4%
proportion of the second quadrant (secondary necrosis) (AH109A cells [2]; 12.5 μM ENL): 2.3%
proportion of the third quadrant (live cells) (AH109A cells [2]; 12.5 μM ENL): 86.1%
proportion of cells in the early stage of apoptosis (AH109A cells [2]; 6.25 and 12.5 μM ENL): increased
proportion of cells showing secondary necrosis (AH109A cells [2]; 6.25 and 12.5 μM ENL): increased to some extent
proportion of live cells (AH109A cells [2]; 6.25 and 12.5 μM ENL): decreased in a dose-dependent manner
proliferation of M-cells (normal cells) (M-cells): inhibit the proliferation of M-cells in a dose-dependent manner
